Among the data in PubChem BioAssay (NCI) are GI50 and TGI values, retold here.

“And” between values parts separate entries of the source, which are not always exact repeats. Equal values may be shown once.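 The compound was tested at five concentrations on cells cultured in 96-well plates, with a 48-hour exposure period. Abbreviation: GI50, concentration required for 50% inhibition of growth. At the TGI there is no net growth.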 Some results are limits rather than exact numbers.

Common to all, as to experiment: inhibition of tumour cell growth, NCI panel, 48 h
Test [1] has as its system RXF 393 renal.
Test [2] has as its system SN12C renal.
For test [3], the system named is ACHN renal.
The subject of test [4] is MOLT-4 leukemia.
The subject of test [5] is SK-MEL-5 melanoma.
In test [6] the test system is HCC-2998 colon.
For test [7], the system named is HS 578T breast.
Test [8] concerns SF-268 CNS.
For test [9], the system named is A549 NSCLC.
Test [10] has as its system RPMI-8226 leukemia.

`NC(Cc1ccc(O)cc1)C(=O)N/N=C/c1ccc(N(CCCl)CCCl)cc1` (stereo not given): the GI50 in test [1] was 20.6 µM; in test [2], 1.42 µM; in test [3], 6.42 µM; in test [4], 0.454 µM; in test [5], 19.5 µM; in [6], 24.1 µM. Also, the GI50 in test [7] was 32 µM; in test [8], 2.81 µM; in test [9], 6.39 µM; in test [10], 10.1 µM. For the same molecule, the TGI in [1], in [2], in test [3], in [4], in test [5] and in test [6] was above 100 µM each time. For the same molecule, the TGI in test [7] was above 100 µM; in [8], 87.8 µM; in test [9], above 100 µM; in test [10] it was above 100 µM.
Regarding `COc1ccc(/C=C/c2ccnc3ccccc23)cc1`, the TGI was 35.4 µM in test [1]; 32.7 µM in test [2]; 27 µM in test [3]; 34 µM in test [4]; 27.5 µM in [5]; 36.6 µM in test [6]. Further, the TGI in test [7] was 48.8 µM; in test [8], 30.4 µM; in test [9], 30.8 µM; in [10], 45 µM.
As for `O=c1c(-c2ccc3c(c2)OCO3)coc2c(CO)c(O)ccc12`, the GI50 in test [1] was 0.941 µM; in test [2], 1.82 µM; in test [3] it was 1.82 µM; in [4] it was 30.2 µM; in test [5] it was 1.91 µM; in test [6], 2.01 µM. Moreover, the GI50 in test [7] is 2.28 µM; in test [8] it was 1.96 µM; in test [9], 6.8 µM; in test [10] it was 3.64 µM. For the same molecule, the TGI in test [1] is 2.29 µM; in test [2], 5.51 µM; in test [3], 5.34 µM; in test [4], above 100 µM; in test [5], 3.98 µM; in test [6] it was 3.89 µM. The TGI in test [7] worked out at 7.12 µM; in [8] it was 4.41 µM; in test [9], 30.9 µM; in test [10], 53.6 µM.
In the case of `NS(=O)(=O)c1cccc(-c2cc3ccncc3cc2OCc2ccccc2)c1`, the GI50 in test [1] was 4.96 µM; in test [2], 14.5 µM; in [3] it was 8.14 µM; in test [4] it was 8.44 µM; in test [5], 4.83 µM; in test [6], 15.2 µM. Also, the GI50 in test [7] was 4.2 µM; in [8], 14.5 µM; in [9] it was 10.3 µM; in test [10], 6.66 µM. Further, the TGI is above 21.8 µM in test [1]; above 25 µM in test [2]; above 25 µM in test [3]; above 25 µM in test [4]; above 15.8 µM in test [5]; above 25 µM in test [6]. Besides, the TGI is above 18.4 µM in test [7], above 25 µM in test [8], above 25 µM in test [9] and above 25 µM in test [10].
As to `CS(=O)/C(C#N)=C\C=C\c1cccc(Cl)c1` (stereo not given), the GI50 in [1] was 2 µM; in test [2] it was 2.74 µM; in test [3], 2.78 µM; in test [4] it was 2.54 µM; in test [5] it was 1.87 µM; in test [6], 1.8 µM. In addition, the GI50 is 13.1 µM in test [7], 2.46 µM in test [8], 2.99 µM in [9] and 2.44 µM in test [10]. In addition, the TGI in test [1] is 3.9 µM; in [2], 12.2 µM; in [3] it was 10.4 µM; in test [4] it was 16.4 µM; in test [5] it was 3.96 µM; in test [6], 3.3 µM. Besides, the TGI in test [7] worked out at 52.6 µM; in test [8], 14.5 µM; in [9], 16.8 µM; in [10], 12 µM.
With `O=C1c2cccc3cccc(c23)C(=O)N1CC#Cc1ccc2c3c(cccc13)C(=O)N(CCN1CCNCC1)C2=O`, the GI50 in test [1] is 2.7 µM; in test [2], 1.71 µM; in [3] it was 2.75 µM; in [4], 2.17 µM; in test [5], 18.3 µM; in test [6], 2.1 µM. Further, the GI50 in test [7] is 11.2 µM; in test [8], 13.5 µM; in [9], 3.19 µM; in test [10], 2.12 µM. Moreover, the TGI in test [1] worked out at 10.4 µM; in [2], 3.68 µM; in test [3], 7.96 µM; in [4], 5.07 µM; in [5], 36.4 µM; in [6], 4.94 µM. Moreover, the TGI worked out at 33.7 µM in test [7], 35.5 µM in test [8], 12 µM in test [9] and 4.49 µM in test [10].
As for `O=C(N/N=C/c1ccncc1)c1ccc(C(F)(F)F)nc1Nc1cccc(C(F)(F)F)c1`, the GI50 in test [1] is 1.51 µM; in [2] it was 2.37 µM; in [3], 3.46 µM; in [4] it was 2.53 µM; in test [5], 2.81 µM; in test [6], 2.15 µM. In addition, the GI50 in [7] is 2.02 µM; in [8], 2.55 µM; in test [9] it was 3.12 µM; in [10] it was 0.514 µM. Besides, the TGI in test [1] came out at 5.28 µM; in test [2], 11.5 µM; in [3] it was 12.1 µM; in test [4], 9.1 µM; in test [5], 11.7 µM; in test [6], 8.94 µM. Further, the TGI stood at 8.51 µM in [7], 7.36 µM in test [8], 10.9 µM in test [9] and 4.05 µM in test [10].
As for `COc1ccc(-c2nnc(Nc3nc(O)c(C4=c5cc(OC(F)(F)F)ccc5=NC4=O)s3)o2)cc1`, the GI50 in test [1] is 13.9 µM; in test [2], 16.5 µM; in test [3] it was 22.3 µM; in test [4], 18.5 µM; in [5], 17.7 µM; in [6] it was 13.4 µM. Further, the GI50 is 38.3 µM in test [7], above 100 µM in test [8], 17.2 µM in test [9] and 14.2 µM in test [10]. Besides, the TGI in test [1] is 29.1 µM; in test [2], 40.5 µM; in test [3] it was above 100 µM; in test [4], 49.3 µM; in test [5], 42.9 µM; in test [6], 28.6 µM. Moreover, the TGI in [7] is above 100 µM; in test [8] it was above 100 µM; in test [9], 81.4 µM; in test [10], 37.2 µM.
For the molecule `CCOC(=O)C1=C(C)NC(C)=C(C(=O)OCC)C1c1cc(Br)c(O)c(OC)c1`, the GI50 in test [1] was 1.98 µM; in test [2], 6.07 µM; in test [3], 5.56 µM; in test [4] it was 3.61 µM; in [5] it was 3.61 µM; in test [6], 3.12 µM. The GI50 in test [7] is 2.54 µM; in test [8], 5.36 µM; in test [9], 4.11 µM; in test [10] it was 4.52 µM. Also, the TGI was found to be 6.05 µM in [1]; 22.5 µM in test [2]; 22 µM in [3]; 52.4 µM in [4]; 14.6 µM in [5]; 10.8 µM in test [6]. The TGI was 9.47 µM in test [7], 22.4 µM in test [8], 18.8 µM in test [9] and 41.4 µM in [10].
In the case of `O=C1c2ccccc2C(=O)c2c(NCCNCCO)ccc(NCCNCCO)c21`, the GI50 in test [1] was 0.322 µM and 2.43 µM and 1.92 µM; in test [2], 0.183 µM and 0.358 µM and 0.292 µM; in test [3] it was 2.05 µM and 0.967 µM and 1.39 µM; in test [4], 0.151 µM and 0.142 µM and 0.167 µM; in [5], 1.41 µM and 1.13 µM and 1.09 µM; in [6] it was 1.39 µM and 1.95 µM and 2.18 µM. Besides, the GI50 is 0.333 µM and 0.208 µM and 1.22 µM in test [7]; 0.276 µM and 0.257 µM and 0.36 µM in test [8]; 0.195 µM and 0.183 µM and 0.123 µM in test [9]; 1.49 µM and 3.37 µM and 1.8 µM in test [10]. Besides, the TGI in [1] was 2 µM and 10.8 µM and 7.68 µM; in test [2] it was 4.57 µM and 12.5 µM and 9.84 µM; in [3], 49 µM and 13 µM and > 44.8 µM; in [4], 59.7 µM and 11.5 µM; in test [5], 3.34 µM and 2.87 µM and 2.86 µM; in test [6], 3.78 µM and 7.83 µM and 7.03 µM. In addition, the TGI was 2.49 µM and 4.02 µM and 5.69 µM in [7]; 2.61 µM and 3.34 µM and 3.76 µM in test [8]; 6.92 µM and 9.37 µM and 6.34 µM in test [9]; 12.2 µM and 33 µM and 10.9 µM in test [10].
With `Nc1nc2c(c(=O)[nH]1)N=C(COP(=O)(O)OP(=O)(O)O)CN2`, the TGI in [1], in test [2], in test [3], in [4], in [5] and in test [6] was above 100 µM in each case. The TGI in test [7], in test [8], in [9] and in test [10] was above 100 µM each time.
Regarding `Cc1ccn2c(-c3csc(Nc4cccc(O)c4)n3)c(C)nc2c1`, the GI50 in test [1] is 1.27 µM; in test [2] it was 0.946 µM; in [3] it was 0.812 µM; in test [4] it was 0.591 µM; in [5], 0.478 µM; in [6] it was 2.81 µM. Besides, the GI50 in test [7] was 1.17 µM; in test [8], 0.785 µM; in test [9], 0.896 µM; in test [10], 0.422 µM. Also, the TGI is 7.26 µM in [1]; 27.8 µM in test [2]; above 100 µM in test [3]; 27.9 µM in [4]; 11.1 µM in test [5]; 17.4 µM in test [6]. For the same molecule, the TGI in test [7] came to 29.3 µM; in [8], 42.6 µM; in [9], 26.1 µM; in [10], 5.02 µM.
